What was measured:
[1] = oral dosing; cited from earlier work
[2] = test system: spinal nerve transection in the rat; experiment: Spinal nerve transection model of chronic neuropathic pain, mechanical allodynia (von Frey filaments); type: in vivo; conditions: for mechanical allodynia: L5 spinal nerve transection, dose-dependent
Method: Experiments were performed using a well-established animal model for chronic pain, spinal nerve transection in the rat. The model measures changes in mechanical allodynia, or an increased sensitivity following non-noxious stimulus, such as touch. Rats were injected intraperitdneally one day before and then daily for ten days following nerve transection. […] The effect was dose-dependent, with larger reductions seen with higher doses of the drug.
The same model. was used with rats injected intrathecally with either saline or propentofylline (1 or 3 μg), daily for 10 days. […] The responses were also dose-dependent with the largest reduction seen at the highest dose tested.
Surgery was performed under inhalation anesthesia using halothane in 100% oxygen at 4% and maintained at 2%. Each rat received a single unilateral lesion directed at a left L5 spinal root or spinal nerve. The nerve was identified, freed from adjacent nerves and transected. For sham lesions, a minilaminectomy was performed of the L5 vertebral segment without lesioning. Animals were allowed to recover from anesthesia and were not subjected to any additional surgical procedures or anesthesia until the end of the study when they were euthanized.
Propentofylline was injected intraperitoneally at doses of 1 and 10 mg/kg the day before and for each day of testing (10 days). Saline injections served as a control. Other rats were injected intrathecally at doses of 1 and 3 μg on each day of testing.
Mechanical hypersensitivity was measured as the frequency of foot withdrawals elicited by a defined mechanical stimulus. […]
In blinded testing, rats were subjected to sequential series of 10 tactile stimulations to the plantar surface of the ipsilateral hindpaw using 2 and 12 gauge von Frey filaments (Stoelting Co., WoodDale, Ill.) sequentially. […] Mechanical sensitivity was assessed by recording the total number of responses elicited during three successive trials separated by at least 10 minutes.

[3] = test system: humans with neurodegenerative disease; conditions: Alzheimer's Disease and vascular dementia; cited from earlier work

## CCCn1cnc2c1c(=O)n(CCCCC(C)=O)c(=O)n2C [propentofylline, Propentofylline]
[1]
  absorption and metabolism: well absorbed and extensively metabolized
[2]; intraperitoneal 1 and 10 mg/kg, one day before and daily for ten days
  mechanical allodynia: significant decrease in mechanical allodynia
[2]; intrathecal 1 or 3 μg daily for 10 days vs saline
  mechanical allodynia: significant decrease in mechanical allodynia
[2]; increasing doses, both central and peripheral routes
  responses to stimulation (foot withdrawals to von Frey filaments): dose-dependent decreases in responses to stimulation
[3]
  safety and efficacy in clinical trials: both safe and effective

Source: patent publication US6413976B1, “Compositions and method for decreasing neuropathic pain” (Trustees of Dartmouth College, priority 1999, dated 2002)
